The term inhibition denotes the percentage by which the read-out fell short of the control. High values mean a strong effect, low ones a weak effect. In general, melting point refers to the temperature of the solid-liquid transition.

Data set [1] has as its target farnesyl protein transferase (Homo sapiens, UniProt P49354+P49356). In words: In vitro assay for inhibition of farnesyl protein transferase. In kind it is biochemical. The settings on record: for inhibition at 0.1 µM / % of inhibition at 10^−7 M: at 10^−7 M; for IC50 / Enzyme activity pIC50: negative log value of the IC50-value; for IC50: read-out: Enzyme activity pIC50 (converted). The procedure:
Example C.1: “In Vitro Assay for Inhibition of Farnesyl Protein Transferase”:
An in vitro assay for inhibition of farnesyl transferase was performed essentially as described in WO 98/40383, pages 33-34. Herein the effects of test compounds are expressed as pIC50 (the negative log value of the IC50-value) and as % of inhibition at 10^−7 M (see Table F-2)

As to `CN1c2ccc(C(O)(c3ccc(Cl)cc3)c3cncn3C)cc2C(c2cccc(Cl)c2)n2nnnc21` (mixture of isomers) [Compound 19], in data set [1], the inhibition at 0.1 µM was 92% and the IC50 was 9.71 nM.
`Cn1cncc1[C@](N)(c1ccc(Cl)cc1)c1ccc2c(c1)C(c1cccc(Cl)c1)n1nnnc1N2` (stereo partly drawn) [Compound 23]: the melting point was over 250 °C. In data set [1], 0.1 µM produced 98% inhibition and the IC50 is 2.54 nM.
Turning to `Cc1ccc(C(N)(c2ccc3c(c2)C(c2cccc(Cl)c2)n2nnnc2N3)c2cncn2C)cc1` (single isomer, unassigned) [Compound 4, 9-(3-chlorophenyl)-4,9-dihydro-α-(1-methyl-1H-imidazol-5-yl)-α-(4-methylphenyl)-tetrazolo[5,1-b]quinazoline-7-methanamine], in data set [1], the “% of inhibition at 10^−7 M” value turned out to be 74% and the IC50 is 34.6 nM.
`Cn1cncc1[C@](N)(c1ccc(Cl)cc1)c1ccc2c(c1)C(c1cccc(Cl)c1)n1nnnc1N2` (stereo partly drawn) [Compound 24] came in with a melting point of 183 °C. In data set [1], the “% of inhibition at 10^−7 M” value is reported as 88% and the IC50 was 11.7 nM.
The compound `COc1ccc(C(O)(c2ccc3c(c2)C(c2cccc(Cl)c2)n2nnnc2N3CC2CC2)c2cncn2C)cc1` (stereo not drawn) [Compound 9] came in with a melting point of 121 °C. In data set [1], testing at 0.1 µM gave an inhibition of 82% and the IC50 was 20.6 nM.
As to `CCOC(c1ccc(Cl)cc1)(c1ccc2c(c1)C(c1cccc(Cl)c1)n1nnnc1N2)c1cncn1C` (stereo not drawn) [Compound 10], in data set [1], the inhibition at 0.1 µM stood at 43% and the IC50 is over 100 nM.
Take `COc1ccc(C(O)(c2ccc3c(c2)C(c2cccc(Cl)c2)n2nnnc2N3C)c2cncn2C)cc1` (mixture of isomers) [Compound 6]: in data set [1], the “% of inhibition at 10^−7 M” value was determined as 90% and the IC50 was 14.1 nM.
With `COc1ccc(C(O)(c2ccc3c(c2)C(c2cccc(Cl)c2)n2nnnc2N3)c2cncn2C)cc1` (stereo not drawn) [Compound 3, 9-(3-chlorophenyl)-4,9-dihydro-α-(4-methoxyphenyl)-α-(1-methyl-1H-imidazol-5-yl)-tetrazolo[5,1-]quinazoline-7-methanol], in data set [1], the inhibition at 0.1 µM is 80% and the IC50 was 23.3 nM.
`CN1c2ccc(C(O)(c3ccc(I)cc3)c3nncn3C)cc2C(c2cccc(Cl)c2)n2nnnc21` (mixture of isomers) [Compound 22] yielded a melting point of 181 °C. Besides, in data set [1], the inhibition at 0.1 µM came to 57% and the IC50 was under 100 nM.
In the same order, the values of `CN1c2ccc(C(O)(c3ccc(I)cc3)c3cncn3C)cc2C(c2cccc(Cl)c2)n2nnnc21` (mixture of isomers) [Compound 21] are 228 °C, 78% and 19.1 nM.
In the case of `Cn1cncc1[C@@](N)(c1ccc(Cl)cc1)c1ccc2c(c1)C(c1cccc(Cl)c1)n1nnnc1N2` (single isomer, unassigned) [Compound 12], the melting point is 162 °C. In data set [1], the “% of inhibition at 10^−7 M” value came to 42% and the “Enzyme activity pIC50” value is under 7.
Compound `Cn1cncc1C(O)(c1ccc(Cl)cc1)c1ccc2c(c1)C(c1cccc(Cl)c1)n1nnnc1N2` (stereo not drawn) [Compound 1, 9-(3-chlorophenyl)-α-(4-chlorophenyl)4,9-dihydro-α-(1-methyl-1H-imidazol-5-yl)-tetrazolo[5,1-b]quinazoline-7-methanol] displayed a melting point of over 260 °C. For the same compound, in data set [1], the inhibition at 0.1 µM was found to be 81% and the IC50 is 25.4 nM.
In the same order, the values of `CC(C)OC(=O)c1ccc(C(O)(c2ccc3c(c2)C(c2cccc(Cl)c2)n2nnnc2N3C)c2cncn2C)cc1` (mixture of isomers) [Compound 25] are 165 °C, 66% and under 100 nM.
The corresponding values for `Cn1cncc1[C@@](N)(c1ccc(Cl)cc1)c1ccc2c(c1)C(c1cccc(Cl)c1)n1nnnc1N2` (single isomer, unassigned) [Compound 11] are 242 °C, 46% and over 100 nM.
The corresponding values for `Cn1cncc1C(O)(c1ccc(I)cc1)c1ccc2c(c1)C(c1cccc(Cl)c1)n1nnnc1N2` (mixture of isomers) [Compound 18] are 225 °C, 76% and 29.9 nM.
Compound `COc1ccc(C(O)(c2ccc3c(c2)C(c2cccc(Cl)c2)n2nnnc2N3Cc2ccc(C#N)cc2)c2cncn2C)cc1` (mixture of isomers) [Compound 14] yielded a melting point of 164 °C. In addition, in data set [1], at 0.1 µM the inhibition was 74% and the IC50 is 18.6 nM.
In the same order, the values of `COc1ccc(C(c2ccc3c(c2)C(c2cccc(Cl)c2)n2nnnc2N3C)c2cncn2C)cc1` (mixture of isomers) [Compound 20] are 108 °C, 91% and 9.2 nM.
In the case of `Cn1cnnc1C(O)(c1ccc(I)cc1)c1ccc2c(c1)C(c1cccc(Cl)c1)n1nnnc1N2` (stereo not drawn) [Compound 17], the melting point came to 195 °C. In data set [1], the “% of inhibition at 10^−7 M” value is recorded as 42% and the “Enzyme activity pIC50” value is under 7.
Take `CCOC(=O)CN1c2ccc(C(O)(c3ccc(OC)cc3)c3cncn3C)cc2C(c2cccc(Cl)c2)n2nnnc21` (mixture of isomers) [Compound 13]: the melting point is 126 °C. Besides, in data set [1], testing at 0.1 µM gave an inhibition of 80% and the IC50 is 25.4 nM.
As to `Cc1ccc(C(N)(c2ccc3c(c2)C(c2cccc(Cl)c2)n2nnnc2N3)c2cncn2C)cc1` (single isomer, unassigned) [Compound 5, 9-(3-chlorophenyl)-4,9-dihydro-α-(1-methyl-1H-imidazol-5-yl)-α-(4-methylphenyl)-tetrazolo[5,1-b]quinazoline-7-methanamine], in data set [1], the “% of inhibition at 10^−7 M” value came to 99% and the IC50 was under 1 nM.
As for `COc1ccc(C(O)(c2ccc3c(c2)C(c2cccc(Cl)c2)n2nnnc2N3C)c2cncn2C)cc1` (mixture of isomers) [Compound 15], the melting point worked out at 144 °C. In data set [1], testing at 0.1 µM gave an inhibition of 88% and the IC50 was 16.6 nM.
`COc1ccc(C(O)(c2ccc3c(c2)C(c2cccc(Cl)c2)n2nnnc2N3)c2cncn2C)cc1` (single isomer, unassigned) [Compound 7] registered a melting point of over 260 °C. In data set [1], the “% of inhibition at 10^−7 M” value is given as 64% and the IC50 was under 100 nM.
The corresponding values for `COc1ccc(C(O)(c2ccc3c(c2)C(c2cccc(Cl)c2)n2nnnc2N3)c2cncn2C)cc1` (single isomer, unassigned) [Compound 8] are 176 °C, 88% and 12.4 nM.
For the compound `Cn1cnnc1C(O)(c1ccc(I)cc1)c1ccc2c(c1)C(c1cccc(Cl)c1)n1nnnc1N2` (mixture of isomers) [Compound 16], the melting point is 226 °C. For the same compound, in data set [1], the inhibition at 0.1 µM was found to be 45% and the IC50 is over 100 nM.
In the same order, the values of `Cn1cncc1C(O)(c1ccc(F)cc1)c1ccc2c(c1)C(c1cccc(Cl)c1)n1nnnc1N2` (stereo not drawn) [Compound 2, 9-(3-chlorophenyl)-α-(4-fluorophenyl)4,9-dihydro-α-(1-methyl-1H-imidazol-5-yl)-tetrazolo[5,1-b]quinazoline-7-methanol] are 180 °C, 96% and 1.77 nM.

The record behind these values is patent publication US7655654B2, “Farnesyl transferase inhibiting tricyclic quinazoline derivatives substituted with carbon-linked imidazoles or triazoles” (Janssen Pharmaceutica NV, priority 2002, dated 2010).
